Data from US10894784B2, “Heteroarylbenzimidazole compounds” (BAYER PHARMA AKTIENGESELLSCHAFT, priority 2015, dated 2021).
“And” between values parts separate entries of the source, which are not always exact repeats. Equal entries are not always repeated. Where two headings read alike, the source gives them in different places.

Target: TBK1 (Homo sapiens (Human), UniProt Q9UHD2)
Test: TBK1 low ATP kinase assay (in vitro assay 1)
Assay type: biochemical
[1] = in vitro assay 1, read-out: TBK1 low ATP kinase assay IC50

Sequence of TBK1 (Q9UHD2 whole entry): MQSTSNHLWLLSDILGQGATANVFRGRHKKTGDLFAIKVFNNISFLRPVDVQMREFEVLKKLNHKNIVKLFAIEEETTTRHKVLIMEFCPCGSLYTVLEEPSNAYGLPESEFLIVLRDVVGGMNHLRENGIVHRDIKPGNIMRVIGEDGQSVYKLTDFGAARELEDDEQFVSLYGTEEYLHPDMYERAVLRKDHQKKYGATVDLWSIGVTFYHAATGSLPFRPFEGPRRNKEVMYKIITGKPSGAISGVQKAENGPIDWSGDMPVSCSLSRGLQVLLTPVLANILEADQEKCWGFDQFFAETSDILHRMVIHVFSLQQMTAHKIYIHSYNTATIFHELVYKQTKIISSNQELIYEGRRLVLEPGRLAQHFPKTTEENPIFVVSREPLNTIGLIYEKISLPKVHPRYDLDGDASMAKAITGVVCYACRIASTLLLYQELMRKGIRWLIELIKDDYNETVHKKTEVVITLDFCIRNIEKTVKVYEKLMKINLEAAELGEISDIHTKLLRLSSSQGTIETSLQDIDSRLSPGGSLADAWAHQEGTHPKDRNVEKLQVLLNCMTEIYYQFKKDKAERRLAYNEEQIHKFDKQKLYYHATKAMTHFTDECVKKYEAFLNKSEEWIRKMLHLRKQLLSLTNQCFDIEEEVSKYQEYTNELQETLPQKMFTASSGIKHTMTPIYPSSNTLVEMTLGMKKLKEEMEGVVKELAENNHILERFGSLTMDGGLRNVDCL

Row | SMILES | IC50 [1] | IC50 (TBK1 low ATP kinase assay IC50, in vitro assay 1) [nM]
1 | O=C(CC(F)(F)F)N1CCN(Cc2ccnc(Nc3nc4ccc(-c5cnn(CC(F)(F)F)c5)cc4[nH]3)c2)CC1 [Example 58.01.02, 3,3,3-trifluoro-1-(4-{[2-({6-[1-(2,2,2-trifluoroethyl)-1H-pyrazol-4-yl]-1H-benzimidazol-2-yl}amino)pyridin-4-yl]methyl}piperazin-1-yl)propan-1-one] | 9.81 nM | 
2 | Cc1cc(-c2ccc3nc(Nc4cc(CN5CCN(C(=O)C6CCC6)CC5)ccn4)[nH]c3c2)ncn1 [Example 30.01.02, cyclobutyl{4-[(2-{[6-(6-methylpyrimidin-4-yl)-1H-benzimidazol-2-yl]amino}pyridin-4-yl)methyl]piperazin-1-yl}methanone] | 18.5 nM | 
3 | CCOc1nccc(-c2ccc3nc(Nc4cc(C(C)N5CCN(C(=O)CC(F)(F)F)CC5)ccn4)[nH]c3c2)n1 (single isomer, unassigned) [Example 26.03.01.A, 1-{4-[(1R or 1S)-1-(2-{[6-(2-ethoxypyrimidin-4-yl)-1H-benzimidazol-2-yl]amino}pyridin-4-yl)ethyl]piperazin-1-yl}-3,3,3-trifluoropropan-1-one] | 2.98 nM | 
4 | Cc1cc(-c2ccc3nc(Nc4cc(C(C)N5CCN(C(=O)CC(F)(F)F)CC5)ccn4)[nH]c3c2)ncn1 (single isomer, unassigned) [Example 30.03.01.A, 3,3,3-trifluoro-1-{4-[(1R or 1S)-1-(2-{[6-(6-methylpyrimidin-4-yl)-1H-benzimidazol-2-yl]amino}pyridin-4-yl)ethyl]piperazin-1-yl}propan-1-one] |  | 18
5 | COc1cnccc1-c1ccc2nc(Nc3cc(CN4CCN(C(=O)C(C)(C)O)CC4)ccn3)[nH]c2c1 [Example 04.09, 2-hydroxy-1-{4-[(2-{[6-(3-methoxypyridin-4-yl)-1H-benzimidazol-2-yl]amino}pyridin-4-yl)methyl]piperazin-1-yl}-2-methylpropan-1-one] | 28.5 nM | 
6 | CCOc1nccc(-c2ccc3nc(Nc4cc(CN5CCN(C(=O)C6CCC6)CC5)ccn4)[nH]c3c2)n1 [Example 26.01.04, cyclobutyl{4-[(2-{[6-(2-ethoxypyrimidin-4-yl)-1H-benzimidazol-2-yl]amino}pyridin-4-yl)methyl]piperazin-1-yl}methanone] | 11.6 nM | 
7 | Cc1noc(-c2ccc3nc(Nc4cc(CN5C[C@@H](C)N(C(=O)OC(C)(C)C)C[C@@H]5C)ccn4)[nH]c3c2)n1 [Example 16.02.01, tert-butyl (2R,5S)-2,5-dimethyl-4-[(2-{[6-(3-methyl-1,2,4-oxadiazol-5-yl)-1H-benzimidazol-2-yl]amino}pyridin-4-yl)methyl]piperazine-1-carboxylate] | 2260 nM | 
8 | CCOc1nccc(-c2ccc3nc(Nc4cc(CN5CCN(C(=O)OC(C)(C)C)CC5)ccn4)[nH]c3c2)n1 [Example 26.01.01, tert-butyl 4-[(2-{[6-(2-ethoxypyrimidin-4-yl)-1H-benzimidazol-2-yl]amino}pyridin-4-yl)methyl]piperazine-1-carboxylate] | 35.7 nM | 
9 | Clc1ccccc1N1CCN(Cc2ccnc(Nc3nc4ccc(-c5noc(C6CC6)n5)cc4[nH]3)c2)CC1 [Example 22.01, N-(4-{[4-(2-chlorophenyl)piperazin-1-yl]methyl}pyridin-2-yl)-6-(5-cyclopropyl-1,2,4-oxadiazol-3-yl)-1H-benzimidazol-2-amine] | 481 nM | 
10 | Cc1cc(CN2CCN(C(=O)CC(F)(F)F)CC2)cc(Nc2nc3ccc(-c4ccnc(C)n4)cc3[nH]2)n1 [Example 24.02.02, 3,3,3-trifluoro-1-{4-[(2-methyl-6-{[6-(2-methylpyrimidin-4-yl)-1H-benzimidazol-2-yl]amino}pyridin-4-yl)methyl]piperazin-1-yl}propan-1-one] | 63.1 nM | 
11 | Cc1cccc(-c2ccc3nc(Nc4cc(CN5CCN(C(=O)OC(C)(C)C)CC5)ccn4)[nH]c3c2)n1 [Example 12.01, tert-butyl 4-[(2-{[6-(6-methylpyridin-2-yl)-1H-benzimidazol-2-yl]amino}pyridin-4-yl)methyl]piperazine-1-carboxylate] | > 20000 nM and 10000 nM and 8120 nM | 

Second part, the molecule after the results:

Row | IC50 [1] | IC50 (TBK1 low ATP kinase assay IC50, in vitro assay 1) [nM] | SMILES
12 | 11.1 nM |  | CC(c1ccnc(Nc2nc3ccc(-c4cc(C(F)F)ncn4)cc3[nH]2)c1)N1CCN(C(=O)OC(C)(C)C)CC1 (single isomer, unassigned) [Example 174.01, tert-butyl 4-{(1R or 1S)-1-[2-({6-[6-(difluoromethyl)pyrimidin-4-yl]-1H-benzimidazol-2-yl}amino)pyridin-4-yl]ethyl}piperazine-1-carboxylate]
13 | 8.7 nM |  | COc1c(NCC2CC2)ncnc1-c1ccc2nc(Nc3cc(CN4CCN(C(=O)C5CC5)CC4)ccn3)[nH]c2c1 [Example 109.01.03, cyclopropyl[4-({2-[(6-{6-[(cyclopropylmethyl)amino]-5-methoxypyrimidin-4-yl}-1H-benzimidazol-2-yl)amino]pyridin-4-yl}methyl)piperazin-1-yl]methanone]
14 | 9.54 nM |  | O=C(C1CCC1)N1CCN(Cc2ccnc(Nc3nc4ccc(-c5ccnc(OCC6CC6)n5)cc4[nH]3)c2)CC1 [Example 62.01.02, cyclobutyl(4-{[2-({6-[2-(cyclopropylmethoxy)pyrimidin-4-yl]-1H-benzimidazol-2-yl}amino)pyridin-4-yl]methyl}piperazin-1-yl)methanone]
15 | 1.5 nM |  | CC(c1ccnc(Nc2nc3ccc(-c4cnn(CC5CC5(F)F)c4)c(F)c3[nH]2)c1)N1CCN(C(=O)C2CC2)CC1 (single isomer, unassigned) [Example 86.03, cyclopropyl{4-[(1R or 1S)-1-(2-{[6-(1-{[(1RS)-2,2-difluorocyclopropyl]methyl}-1H-pyrazol-4-yl)-7-fluoro-1H-benzimidazol-2-yl]amino}pyridin-4-yl)ethyl]piperazin-1-yl}methanone]
16 | 21 nM |  | COc1c(-c2ccc3nc(Nc4cc(C(C)N5CCN(C(=O)OC(C)(C)C)CC5)ccn4)[nH]c3c2)ncnc1N(C)C (single isomer, unassigned) [Example 107.02.01, tert-butyl 4-{(1R or 1S)-1-[2-({6-[6-(dimethylamino)-5-methoxypyrimidin-4-yl]-1H-benzimidazol-2-yl}amino)pyridin-4-yl]ethyl}piperazine-1-carboxylate]
17 | 210 nM |  | CCC(=O)N1CCN(Cc2ccnc(Nc3nc4ccc(-c5nc(C)no5)cc4[nH]3)c2)CC1 [Example 101.28, 1-{4-[(2-{[6-(3-methyl-1,2,4-oxadiazol-5-yl)-1H-benzimidazol-2-yl]amino}pyridin-4-yl)methyl]piperazin-1-yl}propan-1-one]
18 | 3 nM |  | O=C(C1CC1)N1CCN(Cc2ccnc(Nc3nc4ccc(-c5cc(NCC6CC6)ncn5)cc4[nH]3)c2)CC1 [Example 142.03, cyclopropyl[4-({2-[(6-{6-[(cyclopropylmethyl)amino]pyrimidin-4-yl}-1H-benzimidazol-2-yl)amino]pyridin-4-yl}methyl)piperazin-1-yl]methanone]
19 | 28.6 nM |  | COc1nc(-c2ccc3nc(Nc4cc(CN5CCN(C(=O)CC(F)(F)F)CC5)ccn4)[nH]c3c2)cc(N(C)C)n1 [Example 189.02, 1-(4-{[2-({6-[6-(dimethylamino)-2-methoxypyrimidin-4-yl]-1H-benzimidazol-2-yl}amino)pyridin-4-yl]methyl}piperazin-1-yl)-3,3,3-trifluoropropan-1-one]
